Data reported in PubChem BioAssay AID274 (DTP/NCI, 2004).
Where “and” joins values, the source holds several entries; their conditions need not be identical. Equal entries are not always repeated. Inconclusive results and toxic doses are left out.

Test system: BDF1 mice, Lewis lung carcinoma iv, survival T/C
Assay: NCI In Vivo Anticancer Drug Screen. Data for tumor model Lewis Lung Carcinoma (intravenous) in B6D2F1 (BDF1) mice
Conditions: endpoint: median survival time, schedule: Q01DX009 (ip), higher = longer survival
Protocol: The antitumor activity of compounds was measured in mice bearing transplantable tumors. Survival or tumor size were measured and the results are expressed as the measurement made in the treated group (T) divided by the measurement made in the vehicle treated control group (C). The tumor model used in this assay is Lewis Lung Carcinoma (intravenous) in B6D2F1 (BDF1) mice

[1] = dose: 0.75 mg/kg/injection, vehicle: saline
[2] = dose: 1.5 mg/kg/injection, vehicle: saline
[3] = dose: 3.0 mg/kg/injection, vehicle: saline
[4] = dose: 25.0 mg/kg/injection, vehicle: water
[5] = dose: 50.0 mg/kg/injection, vehicle: water
[6] = dose: 100.0 mg/kg/injection, vehicle: water
[7] = dose: 0.25 mg/kg/injection, vehicle: saline
[8] = dose: 0.5 mg/kg/injection, vehicle: saline
[9] = dose: 1.0 mg/kg/injection, vehicle: saline
[10] = dose: 12.5 mg/kg/injection, vehicle: saline with Tween-80
[11] = dose: 25.0 mg/kg/injection, vehicle: saline with Tween-80
[12] = dose: 50.0 mg/kg/injection, vehicle: saline with Tween-80
[13] = dose: 100.0 mg/kg/injection, vehicle: saline with Tween-80
[14] = dose: 200.0 mg/kg/injection, vehicle: saline with Tween-80
[15] = dose: 400.0 mg/kg/injection, vehicle: saline with Tween-80
[16] = dose: 2.0 mg/kg/injection, vehicle: saline
[17] = dose: 4.0 mg/kg/injection, vehicle: saline
[18] = dose: 12.5 mg/kg/injection, vehicle: suspension in saline
[19] = dose: 25.0 mg/kg/injection, vehicle: suspension in saline
[20] = dose: 0.75 mg/kg/injection, vehicle: Klucel (hydroxypropylcellulose) (HPC)
[21] = dose: 1.5 mg/kg/injection, vehicle: Klucel (hydroxypropylcellulose) (HPC)
[22] = dose: 12.5 mg/kg/injection, vehicle: saline

For `O=C(NCCN1CC1)C(=O)NCCN1CC1`, the T/C (dose: 0.38 mg/kg/injection, vehicle: saline) was 108 % of control, the T/C [1] was 110 % of control and the T/C [2] was 120 % of control. For the same compound, the T/C [3] was 101 % of control.

`O=C(O)C1CC1.[Ag]` was tested, and the T/C (dose: 0.78 mg/kg/injection, vehicle: distilled water + Tween-80) was 96 % of control, the T/C (dose: 1.56 mg/kg/injection, vehicle: distilled water + Tween-80) was 110 % of control and the T/C (dose: 3.12 mg/kg/injection, vehicle: distilled water + Tween-80) was 96 % of control. For the same compound, the T/C (dose: 6.25 mg/kg/injection, vehicle: distilled water + Tween-80) was 100 % of control and the T/C (dose: 12.5 mg/kg/injection, vehicle: distilled water + Tween-80) was 107 % of control.

With `CC[PH+](CC)CC[S-].CC[PH+](CC)CC[S-].[Au+].[Au+]` the T/C (dose: 2.5 mg/kg/injection, vehicle: Klucel (hydroxypropylcellulose) (HPC)) was 115 % of control, the T/C (dose: 5.0 mg/kg/injection, vehicle: Klucel (hydroxypropylcellulose) (HPC)) was 102 % of control and the T/C (dose: 10.0 mg/kg/injection, vehicle: Klucel (hydroxypropylcellulose) (HPC)) was 109 % of control. For the same compound, the T/C (dose: 20.0 mg/kg/injection, vehicle: Klucel (hydroxypropylcellulose) (HPC)) was 114 % of control, the T/C (dose: 40.0 mg/kg/injection, vehicle: Klucel (hydroxypropylcellulose) (HPC)) was 102 % of control and the T/C (dose: 80.0 mg/kg/injection, vehicle: Klucel (hydroxypropylcellulose) (HPC)) was 109 % of control.

For `CC(=O)NC(C=O)OCC=O` (stereo not given), the T/C (dose: 6.25 mg/kg/injection, vehicle: water) was 101 % of control, the T/C (dose: 12.5 mg/kg/injection, vehicle: water) was 110 % of control and the T/C [4] was 102 % of control. The T/C [5] was 111 % of control and the T/C [6] was 106 % of control.

With `CC(=O)O[C@@H]1C(=O)C=C(C)[C@@H]2[C@@H](OC(=O)C=C(C)C)[C@H]3OC(=O)C[C@H]4[C@@H](C)[C@@H](O)[C@]5(O)OC[C@]34[C@H]5[C@@]12C` the T/C (dose: 0.12 mg/kg/injection, vehicle: saline) was 107 % of control, the T/C [7] was 106 % of control and the T/C [8] was 102 % of control. The T/C [9] was 107 % of control.

In the case of `O=C1NC(O)c2ccccc2O1` (stereo not given), the T/C [10] is reported as 108 % of control, the T/C [11] is reported as 103 % of control and the T/C [12] is reported as 105 % of control. The T/C [13] was 101 % of control, the T/C [14] was 112 % of control and the T/C [15] was 102 % of control.

`[Cl][Pt+2][Cl].[NH-]CC1(C[NH-])CCCCC1` was tested, and the T/C [2] was 96 % of control, the T/C [3] was 96 % of control and the T/C (dose: 6.0 mg/kg/injection, vehicle: saline) was 102 % of control.

For `OC(C1CO1)C(O)C1CO1` (stereo not given), the T/C [7] was 93 % of control, the T/C [8] was 94 % of control and 107 % of control and the T/C [9] was 100 % of control and 113 % of control. For the same compound, the T/C [16] was 95 % of control and the T/C [17] was 121 % of control.

With `COc1ccc(C(Cn2ccnc2)Sc2ccc(Cl)c(Cl)c2)cc1` (stereo not given) the T/C (dose: 6.25 mg/kg/injection, vehicle: saline with Tween-80) was 95 % of control, the T/C [10] was 97 % of control and the T/C [11] was 96 % of control. The T/C [12] was 100 % of control.

`Nc1ncn(C2OC(CO)C(O)C2O)c(=O)n1` (stereo not given) was tested, and the T/C (dose: 0.37 mg/kg/injection, vehicle: saline) was 100 % of control, the T/C [1] was 113 % of control and 119 % of control and the T/C [2] was 109 % of control and 115 % of control. For the same compound, the T/C [18] was 115 % of control, the T/C [19] was 124 % of control and the T/C (dose: 400.0 mg/kg/injection, vehicle: suspension in saline) was 175 % of control.

In the case of `Cc1c2cc[n+](CCN3CCCCC3)cc2c(C)c2c1[nH]c1ccc(O)cc12`, the T/C (dose: 1.56 mg/kg/injection, vehicle: suspension in saline) is reported as 105 % of control, the T/C (dose: 3.12 mg/kg/injection, vehicle: suspension in saline) is reported as 100 % of control and the T/C (dose: 6.25 mg/kg/injection, vehicle: suspension in saline) is reported as 109 % of control. The T/C [18] was 118 % of control and the T/C [19] was 122 % of control.

`CCCCCCCCCCCC(c1ccccc1)[N+](C)(C)C` (stereo not given) was tested, and the T/C [9] was 96 % of control, the T/C [16] was 105 % of control and the T/C [17] was 101 % of control.

In the case of `COC(C(=O)C(O)C(C)O)C1CC2C=C3C=C(OC4CC(OC5CC(O)C(OC)C(C)O5)C(OC(C)=O)C(C)O4)C(C)C(=O)C3=C(O)C2=C(O)C1OC1CC(OC2CC(OC3CC(C)(O)C(O)C(C)O3)C(O)C(C)O2)C(O)C(C)O1` (stereo not given), the T/C (dose: 0.06 mg/kg/injection, vehicle: saline with Tween-80) is reported as 96 % of control, the T/C (dose: 0.13 mg/kg/injection, vehicle: saline with Tween-80) is reported as 101 % of control and the T/C (dose: 0.25 mg/kg/injection, vehicle: saline with Tween-80) is reported as 114 % of control. For the same compound, the T/C (dose: 0.5 mg/kg/injection, vehicle: saline with Tween-80) was 104 % of control, the T/C (dose: 1.0 mg/kg/injection, vehicle: saline with Tween-80) was 101 % of control and the T/C (dose: 2.0 mg/kg/injection, vehicle: saline with Tween-80) was 92 % of control.

`NC(=O)c1csc(C2OC(CO)C(O)C2O)n1` (stereo not given) was tested, and the T/C [4] was 326 % of control, the T/C [5] was 326 % of control and the T/C [6] was 326 % of control. The T/C (dose: 200.0 mg/kg/injection, vehicle: water) was 326 % of control, the T/C (dose: 330.0 mg/kg/injection, vehicle: water) was 452 % of control and the T/C (dose: 400.0 mg/kg/injection, vehicle: water) was 326 % of control. The T/C (dose: 500.0 mg/kg/injection, vehicle: water) was 452 % of control and the T/C (dose: 750.0 mg/kg/injection, vehicle: water) was 452 % of control.

In the case of `CC(=O)O[C@@H]1CO[C@H]2O[C@H]3[C@@H](C(C=O)=C[C@H](O)[C@@H]4C5=C(C(C)C)CC[C@]5(C)CC[C@@]34C)[C@@]2(O)C1=O`, the T/C [20] is reported as 96 % of control and the T/C [21] is reported as 107 % of control.

In the case of `c1ccc2c3c(ccc2c1)Sc1ccc2ccccc2c1N3`, the T/C [13] is reported as 111 % of control and the T/C [15] is reported as 102 % of control.

In the case of `CCc1nc(N)nc(N)c1-c1ccc(Cl)c(Cl)c1.[Cl][Pd][Cl]`, the T/C [22] is reported as 114 % of control.

`CC(=O)N(C)c1ccc(Nc2cc(C)[nH]c3ccc4ncnc4c23)cc1` was tested, and the T/C (dose: 6.25 mg/kg/injection, vehicle: saline) was 97 % of control, the T/C [22] was 93 % of control and the T/C (dose: 25.0 mg/kg/injection, vehicle: saline) was 93 % of control. The T/C (dose: 50.0 mg/kg/injection, vehicle: saline) was 117 % of control.

`CC(C)[NH-].CC(C)[NH-].O.O.[Cl][Pt+2][Cl]` was tested, and the T/C (dose: 3.13 mg/kg/injection, vehicle: dextrose) was 100 % of control and the T/C (dose: 6.25 mg/kg/injection, vehicle: dextrose) was 102 % of control.

`COc1cc(Cl)ccc1C` was tested, and the T/C [10] was 111 % of control, the T/C [11] was 107 % of control and the T/C [12] was 97 % of control. The T/C [13] was 108 % of control, the T/C [14] was 102 % of control and the T/C [15] was 98 % of control.

In the case of `C[C@H](N)C(=O)N[C@@H]1[C@H]2C(=C(O)C[C@@H](O)[C@@H]2O)C(=O)O[C@]1(C)C(Cl)Cl`, the T/C (dose: 0.38 mg/kg/injection, vehicle: Klucel (hydroxypropylcellulose) (HPC)) is reported as 101 % of control, the T/C [20] is reported as 102 % of control and the T/C [21] is reported as 108 % of control.
